Measured values from the supplement of paper PMC10307832.

What was measured:
[1] = compound: COc1cc(Nc2ncc(F)c(Nc3ccc4c(n3)NC(=O)C(C)(C)O4)n2)cc(OC)c1OC [R406] + COc1cc2c(Oc3ccc(NC(=O)C4(C(=O)Nc5ccc(F)cc5)CC4)cc3F)ccnc2cc1OCCCN1CCOCC1 [Foretinib] (partner 0.25 µM); assay: relative viability (nuclei count vs DMSO), 5 days (fraction); higher = more cells survive
Procedure, shortened: (§1)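 Lung cancer cell lines were seeded in 1536-well plates and dosed by pin tool the next day, with either a single drug or a fixed anchor-drug dose combined with five library-drug doses (not always all listed) spaced in √10 steps. Five days later, one step fixed the cells and stained their nuclei (final 0.05% Triton X-100, 1% formaldehyde, 1 ug/ml Hoechst), and nuclei were counted on 4× images. Relative viability is the nuclei count in treated wells divided by the count in vehicle wells, and each value is the median of duplicate plates.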

[2] = compound: O=C(/C=C/c1cccnc1)NCCCCC1CCN(C(=O)c2ccccc2)CC1 [Daporinad] + Cc1cc(Nc2cc(N3CCN(C)CC3)nc(Sc3ccc(NC(=O)C4CC4)cc3)n2)n[nH]1 [Tozasertib] (partner 0.1 µM); assay: as above
Procedure, shortened: as §1

| Cell Line | relative viability ([1]; first compound 0.08 µM) | relative viability ([1]; first compound 0.253 µM) | relative viability ([1]; first compound 0.8 µM) | relative viability ([1]; first compound 2.53 µM) | relative viability ([1]; first compound 8 µM) | relative viability ([2]; first compound 0.0005 µM) | relative viability ([2]; first compound 0.001581 µM) | relative viability ([2]; first compound 0.005 µM) | relative viability ([2]; first compound 0.01581 µM) |
| --- | --- | --- | --- | --- | --- | --- | --- | --- | --- |
| NCI-H1975 | 0.9 | 1.05 | 0.986 | 0.492 | 0.227 | 0.789 | 0.742 | 0.661 | 0.692 |
| CAL-12T | 1.03 | 1.23 | 1.22 | 1.09 | 0.812 | 0.324 | 0.325 | 0.158 | 0.124 |
| NCI-H2342 | 0.889 | 1.21 | 1.22 | 0.863 | 0.88 | 0.53 | 0.524 | 0.51 | 0.445 |
| HCC-44 | – | – | – | – | – | 0.881 | 1.03 | 1.16 | 1.05 |
| EKVX | 0.79 | 1 | 0.821 | 0.567 | 0.609 | 0.392 | 0.457 | 0.301 | 0.396 |
| NCI-H1651 | 0.875 | 0.83 | 0.939 | 0.596 | 0.679 | 0.615 | 0.814 | 0.601 | 0.663 |
| NCI-H1648 | – | – | – | – | – | 0.362 | 0.652 | 0.416 | 0.6 |
| NCI-H1703 | 0.346 | 0.327 | 0.323 | 0.228 | 0.218 | – | – | – | – |
| Calu-6 | 0.842 | 0.927 | 0.924 | 0.687 | 0.553 | – | – | – | – |
| EBC-1 | 0.102 | 0.107 | 0.0997 | 0.118 | 0.122 | – | – | – | – |
| A-427 | 1.09 | 1.35 | 1.24 | 0.983 | 0.814 | 0.207 | 0.22 | 0.198 | 0.153 |
| NCI-H2347 | 1.11 | 1.09 | 1.29 | 0.61 | 0.348 | 0.597 | 0.636 | 0.504 | 0.596 |
| NCI-H1355 | 0.973 | 1.09 | 1.15 | 0.833 | 0.691 | 0.519 | 0.558 | 0.58 | 0.631 |
| NCI-H1944 | 0.867 | 0.93 | 0.966 | 0.756 | 0.682 | 0.273 | 0.252 | 0.261 | 0.286 |
| RERF-LC-KJ | 0.937 | 0.951 | 0.997 | 0.785 | 0.809 | 0.559 | 0.45 | 0.562 | 0.517 |
| NCI-H2228 | 0.798 | 1.01 | 0.972 | 0.567 | 0.337 | 0.264 | 0.201 | 0.322 | 0.294 |
| HOP-62 | 1.03 | 1.28 | 0.967 | 1.26 | 0.808 | 0.379 | 0.432 | 0.332 | 0.353 |
| HARA | 0.867 | 1.04 | 1.05 | 0.751 | 0.218 | 0.117 | 0.105 | 0.109 | 0.0561 |
| PC-14 | 0.919 | 0.941 | 0.97 | 0.875 | 0.635 | 0.688 | 0.633 | 0.606 | 0.709 |
| NCI-H1755 | 0.923 | 0.946 | 0.894 | 0.677 | 0.598 | 0.449 | 0.544 | 0.533 | 0.638 |

| Cell Line | relative viability ([1]; first compound 0.08 µM) | relative viability ([1]; first compound 0.253 µM) | relative viability ([1]; first compound 0.8 µM) | relative viability ([1]; first compound 2.53 µM) | relative viability ([1]; first compound 8 µM) | relative viability ([2]; first compound 0.0005 µM) | relative viability ([2]; first compound 0.001581 µM) | relative viability ([2]; first compound 0.005 µM) | relative viability ([2]; first compound 0.01581 µM) |
| --- | --- | --- | --- | --- | --- | --- | --- | --- | --- |
| HCC-78 | 0.562 | 0.602 | 0.642 | 0.57 | 0.56 | 0.417 | – | 0.357 | 0.637 |
| IA-LM | 1.23 | 1.43 | 0.958 | 1.36 | 1.02 | – | – | – | – |
| NCI-H322M | 0.962 | 0.917 | 1.03 | 0.547 | 0.559 | 0.572 | 0.485 | 0.396 | 0.312 |
| NCI-H3122 | 0.962 | 0.959 | 0.931 | – | 0.887 | 0.376 | 0.403 | 0.421 | 0.405 |
| NCI-H441 | 0.863 | 1.13 | 1.18 | 0.718 | 0.406 | 0.512 | 0.646 | 0.718 | 0.668 |
| COR-L23 | 0.925 | 1.18 | 1.12 | 0.931 | 0.665 | 0.199 | 0.232 | 0.179 | 0.106 |
| NCI-H2087 | 1.2 | 1.05 | 1.04 | – | 0.609 | 0.262 | 0.229 | 0.339 | 0.221 |
| LC-2-ad | 0.899 | 1.03 | 0.903 | 0.7 | 0.547 | 0.516 | 0.544 | 0.459 | 0.427 |
| NCI-H1915 | 0.983 | 1.16 | 1.11 | – | 0.989 | 0.476 | 0.401 | 0.485 | 0.494 |
| NCI-H1623 | 0.931 | 0.952 | 0.962 | 0.806 | 0.849 | 0.438 | 0.44 | 0.39 | 0.445 |
| NCI-H2023 | 0.905 | 0.703 | 0.768 | 0.896 | 0.368 | 0.438 | 0.334 | 0.503 | 0.371 |
| COR-L 105 | 0.898 | 1.4 | 1.34 | 1.1 | 0.504 | 0.38 | 0.282 | 0.357 | 0.341 |
| SK-LU-1 | 0.708 | 0.816 | 0.992 | 0.439 | 0.12 | 0.316 | 0.289 | 0.281 | 0.35 |
| LXF-289 | 1.01 | 1.03 | 0.969 | 0.999 | 0.238 | 0.23 | 0.188 | 0.176 | 0.148 |
| PC-3 [JPC-3] | 0.981 | 1.08 | 1.09 | 0.827 | 0.372 | 0.864 | 0.896 | 0.938 | 0.952 |
| NCI-H661 | 0.895 | 1.04 | 0.988 | 1 | 0.76 | 0.368 | 0.339 | 0.345 | 0.292 |
| NCI-H1666 | 0.926 | 1.07 | 0.977 | 0.869 | 0.59 | 0.619 | 0.635 | 0.655 | 0.701 |
| NCI-H2085 | 0.847 | 1.08 | 0.973 | 0.912 | 0.289 | 0.805 | 0.846 | 0.977 | 0.831 |
| NCI-H1734 | 0.812 | 1.07 | 0.997 | 0.52 | 0.448 | 0.283 | 0.262 | 0.285 | 0.263 |
